Experimental findings from the NIST ThermoML archive (doi:10.1016/j.jct.2009.08.004) are described below.

This data set is described as follows: mn = molality of the nth substance listed, in mol/kg. The following applies: 298.15 K, 101 kPa, Liquid, Pulse-echo method.

± gives the expanded uncertainty stated by the source.

As a reminder, the speed of sound is how fast a sound wave travels through the sample. As for `NCC(=O)N[C@@H](CO)C(=O)NCC(=O)O` [glycyl-L-serylglycine] + O, the speed of sound is, setting by setting: (m1 = 0.02692) 1499.5 ± 0.77 m/s; (m1 = 0.03696) 1500.6 ± 0.77 m/s; (m1 = 0.04335) 1501.3 ± 0.77 m/s; (m1 = 0.05037) 1502 ± 0.77 m/s; (m1 = 0.06228) 1503.2 ± 0.77 m/s.
